According to ChEMBL document CHEMBL5325501, “Discovery of BWA-522, a First-in-Class and Orally Bioavailable PROTAC Degrader of the Androgen Receptor Targeting N-Terminal Domain for the Treatment of Prostate Cancer” (J Med Chem, 2023):
The source made the active and inactive calls. The rule behind the calls is not given here.

Assays:
RWPE-1 = experiment: Cytotoxicity against human RWPE-1 cells assessed as reduction in cell viability incubated for 6 days by CCK8 assay; assay type: toxicity, cell-based; conditions: rwpe-1, 144 h, time 6 day
LNCaP [1] = experiment: Downregulation of FKBP51 protein level in human LNCaP cells incubated for 48 hrs by Western blot analysis; assay type: functional, cell-based; conditions: dose 1-10 µM
[2] = AUC(0 to t) in beagle dog at 1 mg/kg, iv measured by LC-MS/MS analysis; assay type: ADME, organism-based, Canis lupus familiaris; design: dose 1 mg/kg, route iv; conditions: in vivo
[3] = Toxicity in ICR mouse assessed as kidney damage at 20 to 60 mg/kg, po administered daily for 14 days; assay type: organism-based; conditions: in vivo, 336 h, dose 20-60 mg/kg, time 14 day
[4] = AUC(0 to t) in ICR mouse at 10 mg/kg, po measured by LC-MS/MS analysis; assay type: ADME, organism-based; design: dose 10 mg/kg, route po; conditions: in vivo
[5] = Toxicity in ICR mouse assessed as testicle damage at 20 to 60 mg/kg, po administered daily for 14 days; assay type: organism-based; conditions: in vivo, 336 h, dose 20-60 mg/kg, time 14 day
[6] = AUC(0 to t) in ICR mouse at 2 mg/kg, iv measured by LC-MS/MS analysis; assay type: ADME, organism-based; design: dose 2 mg/kg, route iv; conditions: in vivo
LNCaP [7] = experiment: Inhibition of colony formation in human LNCaP cells incubated for 2 weeks by crystal violet staining based analysis; assay type: functional, cell-based; conditions: dose 1-10 µM
[8] = Toxicity in NOD SCID mouse xenografted with human LNCaP cells assessed as body weight loss at 20 to 60 mg/kg, po administered daily for 4 weeks; assay type: organism-based; conditions: in vivo, 672 h, dose 20-60 mg/kg
CWR22R [9] = experiment: Inhibition of colony formation in human 22Rv1 cells incubated for 2 weeks by crystal violet staining based analysis; assay type: functional, cell-based; conditions: dose 1-10 µM
[10] = Metabolic stability in human liver microsomes assessed as intrinsic clearance at 2 uM preincubated for 10 mins in the presence of NADPH followed by compound addition and measured per mg protein after 60 mins by LC-MS/MS analysis; assay type: ADME, Microsome; conditions: read-out: CLH
VCaP [11] = experiment: Downregulation of PSA protein level in human VCaP cells incubated for 48 hrs by Western blot analysis; assay type: functional, cell-based; conditions: dose 1-10 µM
[12] = Toxicity in ICR mouse assessed as heart damage at 20 to 60 mg/kg, po administered daily for 14 days; assay type: organism-based; conditions: in vivo, 336 h, dose 20-60 mg/kg, time 14 day
CWR22R [13] = experiment: Antiproliferative activity against AR-dependent human 22Rv1 cells assessed as reduction in cell viability at 3 to 10 uM incubated for 6 days by CCK-8 assay; assay type: functional, cell-based; conditions: dose 3-10 µM, time 6.0 day
DU-145 = experiment: Antiproliferative activity against AR-independent human DU-145 cells assessed as reduction in cell viability at 10 uM incubated for 6 days by CCK-8 assay; assay type: functional, cell-based; conditions: time 6.0 day
[14] = Tmax in beagle dog at 1 mg/kg, iv measured by LC-MS/MS analysis; assay type: ADME, organism-based, Canis lupus familiaris; conditions: in vivo
[15] = Stability in mouse plasma assessed as parent compound remaining measured after 120 mins by LC-MS/MS analysis; assay type: ADME, cell-free; conditions: read-out: Stability
[16] = Cmax in ICR mouse at 2 mg/kg, iv measured by LC-MS/MS analysis; assay type: ADME, organism-based; design: dose 2 mg/kg, route iv; conditions: in vivo
[17] = Toxicity in ICR mouse assessed as lung damage at 20 to 60 mg/kg, po administered daily for 14 days; assay type: organism-based; conditions: in vivo, 336 h, dose 20-60 mg/kg, time 14 day
[18] = Clearance in beagle dog at 1 mg/kg, iv measured by LC-MS/MS analysis; assay type: ADME, organism-based, Canis lupus familiaris; conditions: in vivo
[19] = Cmax in ICR mouse at 10 mg/kg, po measured by LC-MS/MS analysis; assay type: ADME, organism-based; design: dose 10 mg/kg, route po; conditions: in vivo
[20] = Stability in mouse plasma assessed as parent compound remaining measured after 45 mins by LC-MS/MS analysis; assay type: ADME, cell-free; conditions: read-out: Stability
LNCaP [21] = experiment: Antiproliferative activity against AR-dependent human LNCaP cells assessed as reduction in cell viability at 3 to 10 uM incubated for 6 days by CCK-8 assay; assay type: functional, cell-based; conditions: dose 3-10 µM, time 6.0 day
VCaP [22] = experiment: Antiproliferative activity against AR-dependent human VCaP cells assessed as reduction in cell viability at 3 to 10 uM incubated for 6 days by CCK-8 assay; assay type: functional, cell-based; conditions: dose 3-10 µM, time 6.0 day
[23] = Toxicity in ICR mouse assessed as body weight loss at 20 to 60 mg/kg, po administered daily for 14 days; assay type: organism-based; conditions: in vivo, 336 h, dose 20-60 mg/kg, time 14 day
CWR22R [24] = experiment: Antiproliferative activity against enzalutamide-resistant human 22Rv1 cells assessed as reduction in cell viability incubated for 6 days by CCK-8 assay; assay type: functional, cell-based; conditions: 22Rv1, 144 h
LNCaP [25] = experiment: Antitumor activity against human LNCaP cells xenografted in NOD SCID mouse assessed as inhibition of tumor volume at 20 to 60 mg/kg, po administered daily for 4 weeks; assay type: functional, organism-based; conditions: dose 20-60 mg/kg
LNCaP [26] = experiment: Induction of apoptosis in human LNCaP cells assessed as caspase-3 cleavage at 5 to 10 uM incubated for 48 hrs by Western blot analysis; assay type: functional, cell-based; conditions: dose 5-10 µM
[27] = Downregulation of PSA protein level in human VCaP cells at 10 uM incubated for 48 hrs by Western blot analysis relative to control; assay type: functional
[28] = Metabolic stability in mouse liver microsomes assessed as half-life at 2 uM preincubated for 10 mins in the presence of NADPH followed by compound addition and measured after 60 mins by LC-MS/MS analysis; assay type: ADME, Microsome
LNCaP [29] = experiment: Downregulation of TMPRSS2 protein level in human LNCaP cells incubated for 48 hrs by Western blot analysis; assay type: functional, cell-based; conditions: dose 1-10 µM
[30] = molecular target: Voltage-gated inwardly rectifying potassium channel KCNH2 (Homo sapiens, UniProt Q12809); experiment: Inhibition of hERG in HEK293 cells by whole-cell manual patch clamp technique; assay type: toxicity, cell-based
[31] = Half-life in ICR mouse at 10 mg/kg, po measured by LC-MS/MS analysis; assay type: ADME, organism-based; conditions: in vivo
[32] = Clearance in ICR mouse at 2 mg/kg, iv measured by LC-MS/MS analysis; assay type: ADME, organism-based; conditions: in vivo
[33] = Metabolic stability in human liver microsomes assessed as parent compound remaining at 2 uM preincubated for 10 mins in the presence of NADPH followed by compound addition and measured after 60 mins by LC-MS/MS analysis; assay type: ADME, Microsome; conditions: read-out: Stability
LNCaP [34] = experiment: Antitumor activity against human LNCaP cells xenografted in NOD SCID mouse assessed as tumor growth inhibition at 20 mg/kg, po administered daily for 4 weeks relative to control; assay type: functional; conditions: 672 h, read-out: TGI
[35] = Half-life in ICR mouse at 2 mg/kg, iv measured by LC-MS/MS analysis; assay type: ADME, organism-based; conditions: in vivo
LNCaP [36] = experiment: Induction of apoptosis in human LNCaP cells assessed as PARP-1 cleavage at 5 to 10 uM incubated for 48 hrs by Western blot analysis; assay type: functional, cell-based; conditions: dose 5-10 µM
[37] = Metabolic stability in mouse liver microsomes assessed as parent compound remaining at 2 uM preincubated for 10 mins followed by compound addition and measured after 60 mins by LC-MS/MS analysis; assay type: ADME, Microsome; conditions: read-out: Stability
[38] = Toxicity in ICR mouse assessed as spleen damage at 20 to 60 mg/kg, po administered daily for 14 days; assay type: organism-based; conditions: in vivo, 336 h, dose 20-60 mg/kg, time 14 day
LNCaP [39] = experiment: Antiproliferative activity against human LNCaP cells assessed as reduction in cell viability incubated for 6 days by CCK-8 assay; assay type: functional, cell-based; conditions: 144 h
[40] = Downregulation of TMPRSS2 protein level in human LNCaP cells at 10 uM incubated for 48 hrs by Western blot analysis relative to control; assay type: functional
[41] = Downregulation of FKBP51 protein level in human VCaP cells at 10 uM incubated for 48 hrs by Western blot analysis relative to control; assay type: functional

Chain of Voltage-gated inwardly rectifying potassium channel KCNH2 (Q12809 whole entry): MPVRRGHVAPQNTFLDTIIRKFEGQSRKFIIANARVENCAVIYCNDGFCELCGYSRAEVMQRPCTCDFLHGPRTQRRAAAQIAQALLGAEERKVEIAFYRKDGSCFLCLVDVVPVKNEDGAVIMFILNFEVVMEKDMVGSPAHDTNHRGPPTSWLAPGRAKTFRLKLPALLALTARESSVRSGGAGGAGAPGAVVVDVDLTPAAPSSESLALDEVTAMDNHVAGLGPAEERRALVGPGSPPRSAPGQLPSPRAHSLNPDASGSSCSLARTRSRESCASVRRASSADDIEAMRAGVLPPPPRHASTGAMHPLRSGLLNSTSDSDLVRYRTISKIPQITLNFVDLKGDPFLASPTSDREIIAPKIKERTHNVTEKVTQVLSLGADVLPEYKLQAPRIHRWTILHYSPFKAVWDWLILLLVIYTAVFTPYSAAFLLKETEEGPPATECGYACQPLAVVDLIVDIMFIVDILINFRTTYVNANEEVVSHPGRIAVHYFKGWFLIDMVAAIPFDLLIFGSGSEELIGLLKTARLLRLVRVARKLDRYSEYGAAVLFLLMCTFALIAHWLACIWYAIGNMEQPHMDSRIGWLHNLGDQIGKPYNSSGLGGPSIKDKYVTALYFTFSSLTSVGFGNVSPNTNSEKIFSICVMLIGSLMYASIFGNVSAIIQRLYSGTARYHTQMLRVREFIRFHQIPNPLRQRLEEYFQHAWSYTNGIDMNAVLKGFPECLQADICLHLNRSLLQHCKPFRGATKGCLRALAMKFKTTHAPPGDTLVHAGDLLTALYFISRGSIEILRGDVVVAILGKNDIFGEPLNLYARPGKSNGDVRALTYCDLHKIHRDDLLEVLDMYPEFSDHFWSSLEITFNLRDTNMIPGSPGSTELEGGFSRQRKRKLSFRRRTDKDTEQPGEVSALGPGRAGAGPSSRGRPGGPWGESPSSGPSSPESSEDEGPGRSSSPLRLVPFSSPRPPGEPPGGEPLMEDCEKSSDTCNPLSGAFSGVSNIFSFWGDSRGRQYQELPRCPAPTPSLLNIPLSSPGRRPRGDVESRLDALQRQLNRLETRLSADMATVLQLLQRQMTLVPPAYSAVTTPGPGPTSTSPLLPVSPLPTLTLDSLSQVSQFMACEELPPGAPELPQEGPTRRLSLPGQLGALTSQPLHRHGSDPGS

AUCt [2]: 919 ng·h/mL
AUC(0-t) [4]: 5950 ng·h/mL
AUC(0-t) [6]: 3020 ng·h/mL
microsomal CLint at 2 µM [10]: 7.4 µL/min/mg
Tmax [14]: 6 min
remaining at 2 h [15]: 91.2%
Cmax [16]: 782 ng/mL
clearance [18]: 15.5 mL/min/kg
Cmax [19]: 376 ng/mL
remaining at 0.75 h [20]: 102%
half-life at 2 µM [28]: 3.12 h
half-life [31]: 7.9 h
clearance [32]: 9.9 mL/min/kg
remaining at 1 h, 2 µM [33]: 80.9%
half-life [35]: 8.2 h
remaining at 1 h, 2 µM [37]: 99.5%
IC50 (LNCaP [39]): 1.07 µM
Compound: CC(C)(c1ccc(OCC2CCN(CC3CCN(c4ccc5c(c4)C(=O)N(C4CCC(=O)NC4=O)C5=O)CC3)CC2)cc1)c1ccc(OC[C@H](O)CCl)cc1 (stereo partly drawn)
Activity (RWPE-1): Non-Toxic
Activity (LNCaP [1]): Dose-Dependent Effect
Activity [3]: Non-Toxic
Activity [5]: Non-Toxic
inhibition (LNCaP [7]): Dose-Dependent Effect
Activity [8]: Non-Toxic
inhibition (CWR22R [9]): Dose-Dependent Effect
Activity (VCaP [11]): Dose-Dependent Effect
Activity [12]: Non-Toxic
Activity (CWR22R [13]): Active
Activity (DU-145): inactive
Activity [17]: Non-Toxic
Activity (LNCaP [21]): Active
Activity (VCaP [22]): Active
Activity [23]: Non-Toxic
IC50 (CWR22R [24]): 4.08 µM
Activity (LNCaP [25]): Active
Activity (LNCaP [26]): Active
Activity [27]: >80%
Activity (LNCaP [29]): Dose-Dependent Effect
IC50 [30]: > 10 µM
inhibition in vivo at 20 mg/kg (LNCaP [34]): 26%
Activity (LNCaP [36]): Active
Activity [38]: Non-Toxic
Activity [40]: ~45%
Activity [41]: ~25%
